{
  "source": "patent US20210198277A1",
  "about": "“AMINE-SUBSTITUTED ARYL OR HETEROARYL COMPOUNDS” (Epizyme, Inc., priority 2016, published 2021)",
  "note": "pIC50: −log10 of the molar value.",
  "data": [
    {"target": "T1, EHMT2 (Homo sapiens, UniProt Q96KQ7)", "T1 construct": "host or cells: MDA-MB-231", "T1 sequence (Q96KQ7 1-1210)": "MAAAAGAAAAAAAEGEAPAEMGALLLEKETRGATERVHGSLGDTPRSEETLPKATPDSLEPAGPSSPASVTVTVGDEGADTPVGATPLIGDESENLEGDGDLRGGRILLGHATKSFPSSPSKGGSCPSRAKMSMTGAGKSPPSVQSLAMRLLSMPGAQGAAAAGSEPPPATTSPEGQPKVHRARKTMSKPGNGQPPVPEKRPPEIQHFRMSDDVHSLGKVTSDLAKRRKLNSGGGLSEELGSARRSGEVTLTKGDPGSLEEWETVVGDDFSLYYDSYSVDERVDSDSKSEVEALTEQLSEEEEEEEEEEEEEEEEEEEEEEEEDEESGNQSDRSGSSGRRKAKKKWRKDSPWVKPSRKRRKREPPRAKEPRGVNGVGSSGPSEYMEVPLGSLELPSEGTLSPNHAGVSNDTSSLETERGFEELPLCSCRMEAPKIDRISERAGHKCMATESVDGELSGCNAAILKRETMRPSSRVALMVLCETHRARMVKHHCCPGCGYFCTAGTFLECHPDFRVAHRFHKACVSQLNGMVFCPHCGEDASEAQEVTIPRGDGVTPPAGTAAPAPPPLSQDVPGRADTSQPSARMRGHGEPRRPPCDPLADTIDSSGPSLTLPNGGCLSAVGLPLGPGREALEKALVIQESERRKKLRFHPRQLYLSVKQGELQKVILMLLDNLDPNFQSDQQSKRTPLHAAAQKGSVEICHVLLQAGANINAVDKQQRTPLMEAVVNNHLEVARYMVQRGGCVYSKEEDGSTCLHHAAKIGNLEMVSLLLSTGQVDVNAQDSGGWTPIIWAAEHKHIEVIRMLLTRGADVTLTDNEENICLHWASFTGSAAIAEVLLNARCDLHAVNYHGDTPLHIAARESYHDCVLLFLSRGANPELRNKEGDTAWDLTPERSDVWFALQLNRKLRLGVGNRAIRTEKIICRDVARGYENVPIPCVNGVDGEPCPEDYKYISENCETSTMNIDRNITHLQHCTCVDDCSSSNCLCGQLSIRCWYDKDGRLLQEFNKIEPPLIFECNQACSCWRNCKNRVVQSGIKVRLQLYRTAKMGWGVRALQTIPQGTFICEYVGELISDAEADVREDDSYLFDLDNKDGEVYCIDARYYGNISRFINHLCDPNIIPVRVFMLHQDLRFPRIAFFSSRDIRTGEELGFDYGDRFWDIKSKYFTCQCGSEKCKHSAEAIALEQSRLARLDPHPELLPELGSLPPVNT", "test": "MDA-MB-231 H3K9me2 in-cell Western assay (EHMT2 ICW)", "type": "cell-based", "details": "Table III; MDA-MB-231 H3K9me2 in-cell Western; read-out: EHMT2 ICW (IC50 μM)", "how_it_was_run": "(§1)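 IC50 values came from a variable-slope four-parameter fit on triplicate wells, using % inhibition from the 800/700 nm infrared signal ratio (anti-H3K9me2 versus DRAQ5 DNA stain). Before fixation and immunostaining, MDA-MB-231 cells, 3,000 per well, were exposed to compound for 48 h at 37 °C.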", "units": {"IC50": "µM"}, "values": [
      {"smiles": "CNc1cc(C)nc(Nc2ccc(OC)c(O[C@H]3C[C@H](N(C)C)C3)c2)n1", "note": "(single isomer, unassigned) [Compound 329, N^2-(3-((1r,3r)-3-(dimethylamino)cyclobutoxy)-4-methoxyphenyl)-N^4,6-dimethylpyrimidine-2,4-diamine]", "IC50": "> 10"},
      {"smiles": "COc1ccc(Nc2ccc3cnn(C)c3n2)cc1OCCCN1CCCC1", "note": "[Compound 257, N-(4-methoxy-3-(3-(pyrrolidin-1-yl)propoxy)phenyl)-1-methyl-1H-pyrazolo[3,4-b]pyridin-6-amine]", "IC50": "> 10"},
      {"smiles": "COc1ccc(Nc2cc3c(cn2)ncn3C)cc1OCCCN1CCCC1", "note": "[Compound 258, N-(4-methoxy-3-(3-(pyrrolidin-1-yl)propoxy)phenyl)-1-methyl-1H-imidazo[4,5-c]pyridin-6-amine]", "IC50": "> 10"},
      {"smiles": "COc1ccc(Nc2nccc(NCC3CCOCC3)n2)cc1OC1CCC2(CC1)CCN(C)C2", "note": "(stereo not drawn) [Compound 259, N^2-(4-methoxy-3-((2-methyl-2-azaspiro[4.5]decan-8-yl)oxy)phenyl)-N^4-((tetrahydro-2H-pyran-4-yl)methyl)pyrimidine-2,4-diamine]", "IC50": "> 10"},
      {"smiles": "COc1ccc(Nc2nccc(NCC3CCOCC3)n2)cc1OC1CCC2(CC1)CN(C)C2", "note": "[Compound 260, N^2-(4-methoxy-3-((2-methyl-2-azaspiro[3.5]nonan-7-yl)oxy)phenyl)-N^4-((tetrahydro-2H-pyran-4-yl)methyl)pyrimidine-2,4-diamine]", "IC50": "> 10"},
      {"smiles": "CNc1cnnc(Nc2cc(OCCCN3CCCC3)c(OC)cn2)c1", "note": "[Compound 322, N^3-(5-methoxy-4-(3-(pyrrolidin-1-yl)propoxy)pyridin-2-yl)-N^5-methylpyridazine-3,5-diamine]", "IC50": "0.1 to 1"},
      {"smiles": "CNc1cc(Nc2cc(OCCCN3CCCC3)c(OC)cn2)cnn1", "note": "[Compound 323, N^5-(5-methoxy-4-(3-(pyrrolidin-1-yl)propoxy)pyridin-2-yl)-N^3-methylpyridazine-3,5-diamine]", "IC50": "> 10"},
      {"smiles": "CNc1cc(Nc2cc(OCCCN3CCCC3)c(OC)cn2)ncn1", "note": "[Compound 324, N^4-(5-methoxy-4-(3-(pyrrolidin-1-yl)propoxy)pyridin-2-yl)-N^6-methylpyrimidine-4,6-diamine]", "IC50": "> 10"},
      {"smiles": "CNc1cc(Nc2cc(OCCCN3CCCC3)c(OC)cn2)nc(C)n1", "note": "[Compound 325, N^4-(5-methoxy-4-(3-(pyrrolidin-1-yl)propoxy)pyridin-2-yl)-N^6,2-dimethylpyrimidine-4,6-diamine]", "IC50": "1 to 10"},
      {"smiles": "COc1cnc(Nc2nc(C)nc3[nH]ccc23)cc1OCCCN1CCCC1", "note": "[Compound 326, N-(5-methoxy-4-(3-(pyrrolidin-1-yl)propoxy)pyridin-2-yl)-2-methyl-7H-pyrrolo[2,3-d]pyrimidin-4-amine]", "IC50": "1 to 10"},
      {"smiles": "CNc1nc(Nc2ccc(OC)c(OCCCN3CCCC3)c2)nc2c1CCC2", "note": "[Compound 328, N^2-(4-methoxy-3-(3-(pyrrolidin-1-yl)propoxy)phenyl)-N^4-methyl-6,7-dihydro-5H-cyclopenta[d]pyrimidine-2,4-diamine]", "IC50": "1 to 10"},
      {"smiles": "CNc1cc(C)nc(Nc2ccc(OC)c(OC[C@H]3C[C@H](N(C)C)C3)c2)n1", "note": "[Compound 330]", "IC50": "> 10"},
      {"smiles": "CNc1cc(C)nc(Nc2ccc(OC)c(O[C@H]3C[C@H](CN(C)C)C3)c2)n1", "note": "[Compound 331, N^2-(3-((1r,3r)-3-((dimethylamino)methyl)cyclobutoxy)-4-methoxyphenyl)-N^4,6-dimethylpyrimidine-2,4-diamine]", "IC50": "> 10"},
      {"smiles": "CNc1cc(C)nc(Nc2cnc(OC)c(OCCCN3CCCC3)c2)n1", "note": "[Compound 332, N^2-(6-methoxy-5-(3-(pyrrolidin-1-yl)propoxy)pyridin-3-yl)-N^4,6-dimethylpyrimidine-2,4-diamine]", "IC50": "0.1 to 1"},
      {"smiles": "CCn1nc(Nc2nccc3[nH]ccc23)cc1COCCN1CCCC1", "note": "[Compound 333]", "IC50": "> 10"},
      {"smiles": "COc1cnc(Nc2ccnc3[nH]ccc23)cc1OCCCN1CCCC1", "note": "[Compound 335, N-(5-methoxy-4-(3-(pyrrolidin-1-yl)propoxy)pyridine-2-yl)-1H-pyrrolo[2,3-b]pyridin-4-amine]", "IC50": "1 to 10"},
      {"smiles": "COc1cnc(Nc2cc(C)nc3[nH]ccc23)cc1OCCCN1CCCC1", "note": "[Compound 336, N-(5-methoxy-4-(3-(pyrrolidin-1-yl)propoxy)pyridin-2-yl)-6-methyl-1H-pyrrolo[2,3-b]pyridin-4-amine]", "IC50": "1 to 10"},
      {"smiles": "COc1ccc(Nc2nc(C)c(F)c(NC(C)C)n2)cc1OCCCN1CCCC1", "note": "[Compound 337]", "IC50": "1 to 10"},
      {"smiles": "COc1ccc(Nc2nccc(-n3nc(C)cc3C)n2)cc1OCCCN1CCCC1", "note": "[Compound 338]", "IC50": "> 10"},
      {"smiles": "CNCc1cnc(Nc2ccc(OC)c(OCCCN3CCCC3)c2)nc1", "note": "[Compound 339]", "IC50": "> 10"},
      {"smiles": "COc1ccc(Nc2ccnc(NCC3CCN(C(C)=O)CC3)n2)cc1OCCCN1CCCC1", "note": "[Compound 340]", "IC50": "> 10"},
      {"smiles": "COc1ccc(Nc2ccc3cnn(C)c3c2)cc1OCCCN1CCCC1", "note": "[Compound 341]", "IC50": "> 10"},
      {"smiles": "COc1ccc(Nc2ccc3ncn(C)c3n2)cc1OCCCN1CCCC1", "note": "[Compound 342]", "IC50": "> 10"},
      {"smiles": "COc1ccc(Nc2ncc3ncn(C)c3n2)cc1OCCCN1CCCC1", "note": "[Compound 343]", "IC50": "> 10"},
      {"smiles": "COc1ccc(Nc2cccc3ncnn23)cc1OCCCN1CCCC1", "note": "[Compound 344]", "IC50": "> 10"},
      {"smiles": "COc1ccc(Nc2ccc3nn(C)cc3c2)cc1OCCCN1CCCC1", "note": "[Compound 345]", "IC50": "> 10"},
      {"smiles": "COc1ccc(Nc2cccc3cn(C)nc23)cc1OCCCN1CCCC1", "note": "[Compound 346]", "IC50": "> 10"},
      {"smiles": "COc1ccc(Nc2ccc3ncc(C)n3n2)cc1OCCCN1CCCC1", "note": "[Compound 347]", "IC50": "> 10"},
      {"smiles": "COc1ccc(Nc2nccc(-c3cnn(C)c3)n2)cc1OCCCN1CCCC1", "note": "[Compound 348]", "IC50": "> 10"},
      {"smiles": "COc1ccc(Nc2nccc(Nc3cccc(F)c3)n2)cc1OCCCN1CCCC1", "note": "[Compound 349]", "IC50": "1 to 10"},
      {"smiles": "COc1ccc(Nc2nccc(NCC3CCOCC3)n2)cc1NCCCN1CCCC1", "note": "[Compound 350]", "IC50": "1 to 10"},
      {"smiles": "COc1ccc(OCCCN2CCCC2)cc1Nc1nccc(NCC2CCOCC2)n1", "note": "[Compound 351]", "IC50": "> 10"},
      {"smiles": "COc1ccc(NCCCN2CCCC2)cc1Nc1nccc(NCC2CCOCC2)n1", "note": "[Compound 352]", "IC50": "> 10"},
      {"smiles": "CNc1ccnc(Nc2ccc(OC)c(OCCCN3CC[C@@H](F)C3)c2)n1", "note": "[Compound 353]", "IC50": "1 to 10"},
      {"smiles": "CNc1ccnc(Nc2ccc(OC)c(OCCCN3CC(F)C3)c2)n1", "note": "[Compound 354]", "IC50": "1 to 10"}
    ]},
    {"target": "T1, EHMT2", "test": "MDA-MB-231 H3K9me2 in-cell Western assay (EHMT2 ICW)", "type": "cell-based", "details": "Table VI; read-out: EHMT2 ICW IC50", "how_it_was_run": "as §1", "values": [
      {"smiles": "CNc1cc2nccn2c(Nc2cc(OCCCN3CCCC3)c(OC)cn2)n1", "note": "[Compound 611]", "pIC50": "5.00 to 6.00"},
      {"smiles": "CCN1CC(COc2cc(Nc3nc(C)cc4[nH]ccc34)ncc2OC)C1", "note": "[Compound 613]", "pIC50": "5.00 to 6.00"},
      {"smiles": "CNc1cc(C)nc(Nc2cc(OCCCN3CCCC3)c3nc(C)cn3c2)n1", "note": "[Compound 616]", "pIC50": "5.00 to 6.00"},
      {"smiles": "CNc1cc(C)nc(Nc2cc(OCCCN3CCCC3)c3nccn3c2)n1", "note": "[Compound 618]", "pIC50": "< 5.00"},
      {"smiles": "COc1cc2c(C3CCN(C)CC3)cc(C#N)nc2cc1OCCCN1CCCC1", "note": "[Compound 790]", "pIC50": "5.00 to 6.00"},
      {"smiles": "CNc1cc(C)nc(Nc2cc(OCCCN3CCCC3)c3oncc3c2)n1", "note": "[Compound 793]", "pIC50": "< 5.00"},
      {"smiles": "COc1ccc(Nc2nn(C)c3cnccc23)cc1OCCCN1CCCC1", "note": "[Compound 794]", "pIC50": "< 5.00"},
      {"smiles": "COc1cnc(Nc2nn(C)c3cnccc23)cc1OCCCN1CCCC1", "note": "[Compound 795]", "pIC50": "< 5.00"},
      {"smiles": "COc1ccc(Nc2cc(C)[nH]n2)cc1OCCCN1CCCC1", "note": "[Compound 796]", "pIC50": "< 5.00"},
      {"smiles": "COc1ccc(Nc2cc(C)n(C)n2)cc1OCCCN1CCCC1", "note": "[Compound 797]", "pIC50": "< 5.00"}
    ]}
  ]
}
